Literature values, collected in publication PMC4132888 (Biopolymers, 2014).
Where no end group is shown, it is not given here. [ ]: non-standard residue; d: D form.

Key:
[1] = molecular target: T1, rat μ opioid receptor (MOR) (Rattus norvegicus, UniProt P33535); conditions: previously reported; ref [13]
[2] = molecular target: T2, rat δ opioid receptor (DOR) (Rattus norvegicus, UniProt P33533); conditions: previously reported; ref [13]
[3] = molecular target: T1, rat μ opioid receptor (MOR); conditions: previously reported; ref [13]; remark: listed apart in the source
[4] = molecular target: T2, rat δ opioid receptor (DOR); conditions: previously reported; ref [13]; remark: listed apart in the source
[5] = system: KOR
[6] = molecular target: MOR; conditions: read-out: Binding MOR; ref [33]
[7] = molecular target: DOR; conditions: read-out: Binding DOR; ref [33]

T1 sequence (P33535 whole entry): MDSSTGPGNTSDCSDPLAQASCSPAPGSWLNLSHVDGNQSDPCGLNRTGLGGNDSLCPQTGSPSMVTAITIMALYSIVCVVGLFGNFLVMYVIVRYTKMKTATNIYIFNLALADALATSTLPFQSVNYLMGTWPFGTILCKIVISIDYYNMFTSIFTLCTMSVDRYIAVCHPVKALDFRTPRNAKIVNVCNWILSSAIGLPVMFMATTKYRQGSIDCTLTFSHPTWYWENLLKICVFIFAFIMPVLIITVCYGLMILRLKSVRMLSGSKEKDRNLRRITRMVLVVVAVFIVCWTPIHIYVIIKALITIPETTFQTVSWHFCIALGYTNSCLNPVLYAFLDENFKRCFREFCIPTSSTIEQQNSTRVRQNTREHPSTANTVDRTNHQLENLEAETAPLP
T2 sequence (P33533 whole entry): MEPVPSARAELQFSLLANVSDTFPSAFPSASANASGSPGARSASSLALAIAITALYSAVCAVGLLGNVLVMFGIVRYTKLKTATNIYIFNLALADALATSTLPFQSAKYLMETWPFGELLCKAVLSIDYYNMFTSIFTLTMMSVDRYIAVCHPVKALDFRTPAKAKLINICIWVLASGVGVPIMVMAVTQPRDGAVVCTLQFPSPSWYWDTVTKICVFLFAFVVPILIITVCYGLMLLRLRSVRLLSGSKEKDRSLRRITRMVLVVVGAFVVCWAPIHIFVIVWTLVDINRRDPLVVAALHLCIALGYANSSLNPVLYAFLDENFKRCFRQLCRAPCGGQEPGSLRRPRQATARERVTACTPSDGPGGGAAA

## Dmt-c(S-Et-S)[DCys-Aic-DPen]OH [KSK-103]
[1]
  Binding for MOR (in words): low nanomolar binding
[2]
  Binding for DOR (in words): low nanomolar binding
[3]
  Agonist activity at MOR (in words): moderate agonist activity
[4]
  Stimulation of DOR (in words): no stimulation

## Tyr-DThr-Gly-Phe-Leu-Ser-(O-β-D-lactose)-NH2 [MMP-2200]
[5]; ref Polt and co-workers
  KOR affinity (in words): high KOR affinity

## Y[dT]GFLS-NH2 [DTLES]
[6]
  Ki: 1.4 ± 0.08 nM
[7]
  Ki: 4.1 ± 0.41 nM
[5]; read-out: Binding KOR, ref [33]
  Ki: 34 ± 2.2 nM
